Data as given in patent US20220000117A1, “METHOD FOR CONTROLLING DISEASES IN SMALL GRAIN CEREALS, SEED OF SMALL GRAIN CEREALS, AND METHOD FOR SUPPRESSING LODGING DAMAGE IN SMALL GRAIN CEREALS” (KUMIAI CHEMICAL INDUSTRY CO., LTD., priority 2019, published 2022).

Columns and labels:
powdery mildew [1] = experiment: Test Example 3: control test of wheat powdery mildew, cup in greenhouse, inoculated; type: in vivo, Blumeria graminis; design: key to Degree of Disease Occurrence: Σ(index×no. leaves of index)/(4×no. investigated leaves)×100; conditions: for Degree of Disease Occurrence: 19 days after seeding
Procedure: (§1) Degree of Disease Occurrence=Σ(Index×Number of Leaves of Index)/(4×Number of Investigated Leaves)×100 (1)
(§2) Seed having a mass of 1 kg of wheat (variety: Norin No. 61) was mixed into 100 ml of suspension water containing 5 g or 0.5 g of dichlobentiazox or isotianil and air-dried, and then, 12 seeds were sown in a plastic cup having a diameter of 6 cm containing river sand and managed in a greenhouse. The number of emerged seeds was investigated nine days after seeding, and an emergence rate was calculated (Examples 6 to 9). In Comparative Examples 6 to 9, 20 ml of suspension water of an active ingredient, which had been adjusted to have a concentration shown in Table 4, was sprayed in a frame of 45 cm×45 cm in which a pot of wheat seedlings was placed (corresponding to 1000 L/ha) 14 days after seeding. On day 14 after seeding, conidiospores of powdery mildew were sifted over leaves of wheat seedlings and inoculated onto the leaves (after the sprayed liquid was dried in the case of Comparative Examples), a lesion area ratio of powdery mildew in a first leaf was investigated 19 days after seeding according to the criteria in Table 1, and the degree of disease occurrence was calculated by the above calculation formula (1).

septoria leaf blotch = experiment: Test Example 7: control test of septoria leaf blotch of wheat, field, wheat variety TRAPEZ; type: in vivo, Septoria tritici; conditions: for Degree of Disease Occurrence: flag leaves, 219 days after seeding
Procedure: as §1
Seed of wheat (variety: TRAPEZ) was used. On seed having a mass of 1 kg, 20 ml of suspension water containing 0.5 g or 5 g of dichlobentiazox or isotianil was sprayed. In Examples 16, 17, and 18, the seed treated with the chemical was stripe-sown with a ratio of 100 kg/ha. In contrast, in Comparative Example 17, seed which had not treated with dichlobentiazox or isotianil was sown in a field in the same manner, and a spray solution corresponding to that obtained by suspending 750 g of chlomthalonil (commercial FUNGISTOP was used, “FUNGISTOP” is a registered trademark) in 200 liters of water per 1 ha was sprayed on foliage of wheat 154 days and 184 days after seeding. The severity of disease occurrence of septoria leaf blotch in flag leaves of 25 stems was investigated 219 days after seeding according to the criteria in Table 1, and the degree of disease occurrence was calculated by the above calculation formula (1).

[2] = system: wheat (variety: Norin No. 61); experiment: Test Example 2: emergence rate of treated wheat seed; type: in vivo; conditions: 10 days after seeding
Procedure: (§3) Seed having a mass of 1 kg of wheat (variety: Norin No. 61) was mixed into 100 ml of suspension water containing 5 g or 0.5 g of dichlobentiazox or isotianil (commercial Routine flowable was used, “Routine” is a registered trademark) and air-dried, and then, 15 seeds were sown in a plastic pot of 9 cm×9 cm containing horticultural soil and managed in a greenhouse. The number of emerged seeds was investigated 10 days after seeding, and an emergence rate was calculated (Examples 2 to 5). On day 49 after seeding, conidiospores of powdery mildew were sifted over leaves of wheat seedlings and inoculated onto the leaves, a lesion area ratio of powdery mildew in a first leaf was investigated 59 days after seeding according to the criteria in Table 1, and the degree of disease occurrence was calculated by the above calculation formula (1).

powdery mildew [3] = experiment: Test Example 5: control test of wheat powdery mildew, field, wheat variety Haruyutaka; type: in vivo, Blumeria graminis
Procedure: as §1
Seed of wheat (variety: Haruyutaka) sterilized in advance with commercial Benlate T wettable powder 20 (“Benlate” is a registered trademark) was used. In Examples 12, 13, and 14, seed having a mass of 1 kg was mixed into 50 ml of suspension water containing 2.5 g or 1.25 g of dichlobentiazox or 50 ml of suspension water containing 2.5 g of isotianil, air-dried, and then, stripe-sown in a field with a furrow width of 30 cm and a ratio of 100 kg/ha (300 seeds/m^2). Moreover, in Comparative Example 14, seed having a mass of 1 kg was mixed into 50 ml of suspension water containing 2.5 g of tiadinil (commercial V-GET flowable was used, “V-GET” is a registered trademark), air-dried, and then, stripe-sown in a field with a furrow width of 30 cm and a ratio of 100 kg/ha (300 seeds/m^2). The presence or absence of disease occurrence and a lesion area ratio of powdery mildew in leaves just below hag leaves (next leaves) of 30 stems were investigated 85 days after seeding by according to the criteria in Table 1, and a disease leaf rate and the degree of disease occurrence were calculated by the above calculation formula(1).

powdery mildew [4] = experiment: Test Example 2: control test of wheat powdery mildew, pot in greenhouse, inoculated, wheat variety Norin No. 61; type: in vivo, Blumeria graminis; conditions: for Degree of Disease Occurrence: inoculated day 49, first leaf, 59 days after seeding
Procedure: as §1, §3

[5] = system: wheat (variety: Norin No. 61); experiment: Test Example 3: emergence rate of wheat seed; type: in vivo
Procedure: as §2

[6] = Seed Treatment 0.5 g/Seed 1 kg (50 g/ha)
[7] = Seed Treatment 5 g/Seed 1 kg (500 g/ha)
[8] = Seed Treatment 2.5 g/Seed 1 kg (250 g/ha), leaves just below flag leaves, 85 days after seeding

Row | SMILES | Degree of Disease Occurrence (powdery mildew [1]; Foliage Treatment, spray 50 ppm suspension water (50 g/ha) day 14, first leaf) | Degree of Disease Occurrence (powdery mildew [1]; Foliage Treatment, spray 500 ppm suspension water (500 g/ha) day 14, first leaf) | Degree of Disease Occurrence (powdery mildew [1]; Seed Treatment 0.5 g/Seed 1 kg (50 g/ha), inoculated day 14, first leaf) | Degree of Disease Occurrence (powdery mildew [1]; Seed Treatment 5 g/Seed 1 kg (500 g/ha), inoculated day 14, first leaf) | disease occurrence of powdery mildew, seed treatment compared with spraying on foliage during a growing period (powdery mildew [1]; seed treatment) | Degree of Disease Occurrence (septoria leaf blotch; [6]) | disease occurrence of septoria leaf blotch, seed treatment compared with foliage spraying of chlorothalonil (septoria leaf blotch; seed treatment) | Emergence Rate (%) [2, 6] | Emergence Rate (%) [2, 7] | Degree of Disease Occurrence (powdery mildew [3]; [8]) | Disease Leaf Rate (%) (powdery mildew [3]; [8]) | disease occurrence of powdery mildew, seed treatment compared with seed treatment with tiadinil (powdery mildew [3]; seed treatment) | Degree of Disease Occurrence (powdery mildew [4]; [6]) | Degree of Disease Occurrence (powdery mildew [4]; [7]) | disease occurrence under artificial inoculation of powdery mildew (powdery mildew [4]; seed treatment) | Emergence Rate (%) ([5]; Foliage Treatment group, spray 50 ppm (50 g/ha) 14 days after seeding, emergence counted nine days after seeding) | Emergence Rate (%) ([5]; Foliage Treatment group, spray 500 ppm (500 g/ha) 14 days after seeding, emergence counted nine days after seeding) | Emergence Rate (%) ([5]; Seed Treatment 0.5 g/Seed 1 kg (50 g/ha), nine days after seeding) | Emergence Rate (%) ([5]; Seed Treatment 5 g/Seed 1 kg (500 g/ha), nine days after seeding) | Degree of Disease Occurrence (septoria leaf blotch; Foliage Treatment, spray 750 g/ha two times (154 and 184 days after seeding))
1 | N#Cc1ccccc1NC(=O)c1snc(Cl)c1Cl [Compound (10), Isotianil] | 47.2 | 27.8 | 23.5 | 4.4 | suppressed lower | 2.1 | more suppressed | 96% | 100% | 1.0 | 4.4% | suppresses the disease occurrence of powdery mildew lower | 7.6 | 7.1 | the disease occurrence was suppressed | 97% | 100% | 100% | 83.3% | –
2 | N#Cc1c(Cl)c(Cl)c(Cl)c(C#N)c1Cl [Chlorothalonil, chlorothalonil, reference compound] | – | – | – | – | – | – | – | – | – | – | – | – | – | – | – | – | – | – | – | 3.1
